Source: ChEMBL document CHEMBL5576068, “Design, synthesis, and biological antitumor evaluation of tetrahydroisoquinoline derivatives” (Bioorg Med Chem Lett, 2024)

Experiments:
[1] = system: HCT-116; assay: Cytotoxicity against human HCT-116 cells assessed as cell inhibition rate at 40 uM by CCK8 assay relative to control; assay type: functional
[2] = system: MDA-MB-231; assay: Cytotoxicity against human MDA-MB-231 cells assessed as cell inhibition rate at 40 uM by CCK8 assay relative to control; assay type: functional
[3] = system: HepG2; assay: Cytotoxicity against human HepG2 cells assessed as cell inhibition rate at 40 uM by CCK8 assay relative to control; assay type: functional
[4] = system: A-375; assay: Cytotoxicity against human A-375 cells assessed as cell inhibition rate at 40 uM by CCK8 assay relative to control; assay type: functional
[5] = system: HCT-116; assay: Cytotoxicity against human HCT-116 cells measured for 48 hrs; assay type: functional, cell-based; details: HCT-116, 48 h
[6] = system: MDA-MB-231; assay: Cytotoxicity against human MDA-MB-231 cells measured for 48 hrs; assay type: functional, cell-based; details: MDA-MB-231, 48 h
[7] = system: HepG2; assay: Cytotoxicity against human HepG2 cells measured for 48 hrs; assay type: functional, cell-based; details: HepG2, 48 h
[8] = system: A-375; assay: Cytotoxicity against human A-375 cells measured for 48 hrs; assay type: functional, cell-based; details: A-375, 48 h

Row | SMILES | inhibition at 40 µM [1] [%] | inhibition at 40 µM [2] [%] | inhibition at 40 µM [3] [%] | inhibition at 40 µM [4] [%] | IC50 [5] [µM] | IC50 [6] [µM] | IC50 [7] [µM] | IC50 [8] [µM]
1 | COc1cc2c(cc1OC)CN(C)CC2 | 25.2 | 30.7 | 20.6 | 27.4 |  |  |  | 
2 | CN1CCc2cc3c(cc2C1)OCO3 | 18.2 | 14.5 | 26.8 | 22.5 |  |  |  | 
3 | COc1cc2c(cc1OCc1ccccc1)CN(C)CC2 | 32.9 | 30.2 | 16.3 | 14.7 |  |  |  | 
4 | COc1cc2c(cc1OCc1ccccc1)C[N+](C)(Cc1ccc(Oc3ccc(-c4ccc(C#N)cc4)cc3)nc1)CC2 (centres undefined) |  |  |  |  | 7.5 | > 20 | 3.8 | 9.7
5 | COc1cc2c(cc1OCc1ccccc1)C[N+](C)(Cc1ccc([N+](=O)[O-])nc1)CC2 (centres undefined) | 26.6 | 10.1 | 22.6 | 16.1 |  |  |  | 
6 | C[N+]1(Cc2ccc(Br)nc2)CCc2cc3c(cc2C1)OCO3 (centres undefined) | 29.2 | 23.2 | 19.8 | 9.69 |  |  |  | 
7 | COc1cc2c(cc1OCc1ccccc1)C[N+](C)(Cc1ccc(Oc3ccc(Oc4ccccc4)cc3)nc1)CC2 (centres undefined) |  |  |  |  | 11.6 | 12.6 | 12.6 | 7.6
8 | COc1cc2c(cc1OCc1ccccc1)C[N+](C)(Cc1ccc(Oc3ccc(Oc4ccc(C(F)(F)F)cc4)cc3)nc1)CC2 (centres undefined) |  |  |  |  | 4.1 | 9.8 | 4.1 | 6.1
9 | CCCCC[C@H]1CC[C@H](c2ccc(Oc3ccc(C[N+]4(C)CCc5cc(OC)c(OCc6ccccc6)cc5C4)cn3)cc2)CC1 (some centres undefined) |  |  |  |  | 9 | 11.4 | 11.6 | 8.7
10 | COc1cc2c(cc1OCc1ccccc1)C[N+](C)(Cc1ccc(Oc3ccc(OC(C)C)cc3)nc1)CC2 (centres undefined) |  |  |  |  | 19.3 | > 20 | 9.67 | 13.5
11 | COc1cc2c(cc1OCc1ccccc1)C[N+](C)(Cc1ccc(Nc3ccccc3[N+](=O)[O-])nc1)CC2 (centres undefined) |  |  |  |  | 4.6 | 10 | 4.8 | 7.6
12 | COc1cc2c(cc1OCc1ccccc1)C[N+](C)(Cc1ccc(Oc3ccc(C4CC4)cc3)nc1)CC2 (centres undefined) |  |  |  |  | > 20 | 12.5 | 19.2 | 15.7
13 | CCCCN(CCCC)c1ccc(Oc2ccc(C[N+]3(C)CCc4cc(OC)c(OCc5ccccc5)cc4C3)cn2)cc1 (centres undefined) |  |  |  |  | 10.5 | > 20 | 10 | 10.3
14 | COc1cc2c(cc1OCc1ccccc1)C[N+](C)(Cc1ccc(Oc3cc(Cl)ccc3Oc3ccc(Cl)cc3Cl)nc1)CC2 (centres undefined) |  |  |  |  | 4.5 | 9.3 | 4.7 | 5.4
15 | COc1cc2c(cc1OCc1ccccc1)C[N+](C)(Cc1ccc(Oc3ccc(/N=N/c4ccccc4)cc3)nc1)CC2 (centres undefined) |  |  |  |  | 11.6 | 13.3 | 13.1 | 5.5
16 | COc1cc2c(cc1OCc1ccccc1)C[N+](C)(Cc1cnc3ccccc3c1)CC2 (centres undefined) | 8.29 | 7.43 | 6.8 | 13.9 |  |  |  | 

Row | SMILES | inhibition at 40 µM [1] [%] | inhibition at 40 µM [2] [%] | inhibition at 40 µM [3] [%] | inhibition at 40 µM [4] [%] | IC50 [5] [µM] | IC50 [6] [µM] | IC50 [7] [µM] | IC50 [8] [µM]
17 | COc1cc2c(cc1OCc1ccccc1)C[N+](C)(Cc1ccc(Oc3ccc(SC(F)(F)F)cc3)nc1)CC2 (centres undefined) |  |  |  |  | 13.4 | 15.3 | 14.6 | 11.6
18 | COc1cc2c(cc1OCc1ccccc1)C[N+](C)(Cc1ccc(Br)nc1)CC2 (centres undefined) | 20.7 | 17.4 | 27.3 | 22.2 |  |  |  | 
19 | COc1cc2c(cc1OCc1ccccc1)C[N+](C)(Cc1ccc(Oc3ccc(C45CC6CC(CC(C6)C4)C5)cc3)nc1)CC2 (centres undefined) |  |  |  |  | 2.5 | 4.6 | 4.2 | 12.4
20 | COc1cc2c(cc1OCc1ccccc1)C[N+](C)(Cc1ccccn1)CC2 (centres undefined) | 11.6 | 9.61 | 18.9 | 13.7 |  |  |  | 
21 | COc1cc2c(c(OC)c1OC)CC[N+](C)(Cc1ccc(Br)nc1)C2 (centres undefined) | 53.4 | 35.1 | 60.6 | 24.8 |  |  |  | 
22 | COc1cc2c(cc1OCc1ccccc1)C[N+](C)(Cc1ccc(Br)cn1)CC2 (centres undefined) | 16 | 23.7 | 27.8 | 31.2 |  |  |  | 
23 | COc1cc2c(cc1OCc1ccccc1)C[N+](C)(Cc1ccc(Oc3ccc(C4CCC(=O)CC4)cc3)nc1)CC2 (centres undefined) |  |  |  |  | 18.7 | 12.4 | > 20 | 17.9
24 | COc1cc2c(cc1OCc1ccccc1)C[N+](C)(Cc1ccc3ccccc3n1)CC2 (centres undefined) | 3.2 | 2.75 | 7.43 | 13 |  |  |  | 
25 | COc1cc2c(cc1OCc1ccccc1)C[N+](C)(Cc1ccc(Oc3ccc(OCc4ccccc4)cc3)nc1)CC2 (centres undefined) |  |  |  |  | 8.9 | 12.4 | 6.8 | 11.6
26 | COc1cc2c(cc1O)C[N+](C)(Cc1ccc(Br)nc1)CC2 (centres undefined) | 34.5 | 34.4 | 15 | 12.3 |  |  |  | 
27 | COc1cc2c(cc1OCc1ccccc1)C[N+](C)(Cc1ccc(Oc3cc(C(F)(F)F)ccc3F)nc1)CC2 (centres undefined) |  |  |  |  | 18.6 | 17.3 | 12.4 | 12.5
28 | COc1cc2c(c(OC)c1OC)CCN(C)C2 | 18.2 | 52 | 9.18 | 22.3 |  |  |  | 
29 | COc1cc2c(cc1OC)C[N+](C)(Cc1ccc(Br)nc1)CC2 (centres undefined) | 18.4 | 30.5 | 19.8 | 41.1 |  |  |  | 
30 | COc1cc2c(cc1OCc1ccccc1)C[N+](C)(Cc1ccnc3ccccc13)CC2 (centres undefined) | 12.1 | 8.29 | 11.7 | 9.33 |  |  |  | 
31 | COc1ccc2c(c1OC)C(=O)O[C@@H]2[C@H]1c2c(cc3c(c2OC)OCO3)CCN1C [NOSCAPINE] |  |  |  |  | 154 | 120 | 120 | 180
